{"source": "patent US11647710B2", "about": "“Method for preparation of soybean leaf having high content of isoflavone derivative in dark condition and soybean leaf having high content of isoflavone derivative prepared thereby” (INDUSTRY-ACADEMIC COOPERATION FOUNDATION GYEONGSANG …, priority 2019, dated 2023)", "origin": "cited, not measured here", "target": "ER-beta (estrogen receptor beta) (Rattus norvegicus, UniProt Q62986)", "sequence (Q62986 whole entry)": "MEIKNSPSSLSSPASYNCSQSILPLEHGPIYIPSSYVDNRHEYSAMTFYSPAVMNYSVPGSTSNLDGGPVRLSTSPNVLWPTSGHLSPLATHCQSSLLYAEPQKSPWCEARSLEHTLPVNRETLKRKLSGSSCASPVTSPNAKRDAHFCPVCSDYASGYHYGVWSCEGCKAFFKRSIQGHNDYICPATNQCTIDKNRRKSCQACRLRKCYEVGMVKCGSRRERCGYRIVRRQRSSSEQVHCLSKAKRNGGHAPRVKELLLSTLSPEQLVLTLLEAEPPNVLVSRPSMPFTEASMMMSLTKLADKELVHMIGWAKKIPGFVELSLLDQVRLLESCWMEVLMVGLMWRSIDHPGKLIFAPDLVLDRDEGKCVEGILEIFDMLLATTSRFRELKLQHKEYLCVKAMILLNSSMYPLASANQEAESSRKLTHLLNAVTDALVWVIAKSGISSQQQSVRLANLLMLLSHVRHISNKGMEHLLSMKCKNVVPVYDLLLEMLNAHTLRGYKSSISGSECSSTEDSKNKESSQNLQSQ", "settings": "Endocrinology 1997, 863; cited from earlier work", "data": [{"smiles": "O=c1c(-c2ccc(O)cc2)coc2cc(O)ccc12", "note": "[daidzein]", "values": [{"measurement": "affinity for ER-beta", "result": "high affinity"}]}]}
